Measurements from patent US9050267B2 (Novartis AG, priority 2011, dated 2015).
Structures can show the parent of a compound that is named as a salt. Where two headings read alike, the source gives them in different places. Peptide text beside a SMILES is read from it.

What was measured:
[1] = Aerodynamic particle size distribution, NEXT GENERATION IMPACTOR, passive blister dry powder inhaler; format: physicochemical; conditions: Lot A2; for % deviation in FPFd2Q<500: going from 35 L/min to 47 L/min
Protocol: The aerodynamic particle size distribution (aPSD) of the resulting aerosol dose was assessed using a NEXT GENERATION IMPACTOR™ at flow rates of 35 LPM and 47 LPM, corresponding to inhaler pressure drops of 4 kPa and 6 kPa, respectively. Note for present purposes flow rate and pressure drop are related via the inhaler flow resistance, and are used interchangeably. The mass distribution of each active ingredient on the cascade impactor stages was determined using an HPLC assay.
Total lung deposition as a function of variations in flow rate (O) is dependent not only on the aerodynamic particle size distribution of the aerosol, but also on the variations in inertial impaction which occur with changes in flow rate. In other words, for a given aPSD, the lung dose is expected to decrease as the flow rate increases. In order to achieve flow rate independence in-vivo, it is important to achieve a balance of these two opposing factors. A simple way to account for the dependence of lung dose on both variables, i.e. aerodynamic particle size cutoff diameter, d, and flow rate, Q, is to express the aPSD in terms of a fine particle fraction cut-off which incorporates both variables. Assuming oropharyngeal losses are determined largely by inertial impaction, the cut-off for lung dose may be expressed in terms of the impaction parameter, d^2Q. The selected cut-off d^2Q of 500 μm^2-L/min was chosen to represent a range of inhalers, based on the fact that the best correlate of lung deposition is found for the fraction of particles with an aerodynamic size of less than 3 μm, and a medium resistance inhaler is typically tested at a flow rate of about 60 L/min.

[2] = cited from earlier work
[3] = target: β2-adrenoceptor (Homo sapiens, UniProt P07550); conditions: cited from earlier work
Chain of β2-adrenoceptor (P07550 whole entry, species assumed): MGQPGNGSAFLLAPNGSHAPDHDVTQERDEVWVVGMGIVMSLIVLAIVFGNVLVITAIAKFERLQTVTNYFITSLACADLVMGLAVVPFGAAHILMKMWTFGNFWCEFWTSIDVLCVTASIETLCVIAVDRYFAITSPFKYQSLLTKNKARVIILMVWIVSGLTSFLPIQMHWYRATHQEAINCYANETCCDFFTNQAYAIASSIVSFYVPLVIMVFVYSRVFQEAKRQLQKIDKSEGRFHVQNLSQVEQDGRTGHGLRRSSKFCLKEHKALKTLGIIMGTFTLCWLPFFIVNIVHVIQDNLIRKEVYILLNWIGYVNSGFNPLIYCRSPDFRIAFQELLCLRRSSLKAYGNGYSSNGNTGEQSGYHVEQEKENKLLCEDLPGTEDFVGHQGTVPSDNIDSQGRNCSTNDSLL

[4] = TURBUHALER, cited from earlier work
[5] = pressure drop 4 kPa, flow rate 35 L/min
[6] = pressure drop 6 kPa, flow rate 47 L/min

For `C[N+]1(C)CCC(OC(=O)C(O)(c2ccccc2)C2CCCC2)C1.[Br-]` (centres unmarked) [Glycopyrrolate, 3-[(cyclopentyl-hydroxyphenyl-acetyl)oxy]-1,1-dimethylpyrrolidinium bromide], the “% deviation in FPFd2Q<500” value [1] was 8.1%.

For `CCc1cc2c(cc1CC)CC(NC[C@H](O)c1ccc(O)c3[nH]c(=O)ccc13)C2` [Indacaterol maleate, (R)-5-[2-(5,6-diethyl-indan-2-ylamino)-1-hydroxyethyl]-8-hydroxy-1H-quinolin-2-one], the “FPF<3.3 μm” value [1, 5] was 57 % DD, the MMAD [1, 5] was 2.8 μm and the “d^2Q < 500” value [1, 5] was 65. The “FPF<3.3 μm” value [1, 6] was 69 % DD, the MMAD [1, 6] was 2.3 μm and the “d^2Q < 500” value [1, 6] was 68.

In the case of `CC(C)C[C@H](NC(=O)[C@H](CC(C)C)NC(=O)[C@@H](N)CC(C)C)C(=O)O` [trileucine] (H-Leu-Leu-Leu-OH), the Dry Tg ([2]; pH dependent) is listed as 70 to 100 °C.

In the case of `CCc1cc2c(cc1CC)CC(NC[C@H](O)c1ccc(O)c3[nH]c(=O)ccc13)C2` [indacaterol, (R)-5-[2-(5,6-diethyl-indan-2-ylamino)-1-hydroxyethyl]-8-hydroxy-1H-quinolin-2-one], the duration of action [3] is listed as “over 24 hours”, the onset of action [3] is listed as “about 10 minutes” and the “% deviation in FPFd2Q<500” value [1] is listed as 4.6%.

In the case of `O=C([O-])CC(O)(CC(=O)[O-])C(=O)[O-].[Na+].[Na+].[Na+]` [sodium citrate], the “Dry Tg” value ([2]; pH > 7) is given as 170 (pH > 7) ° C.

In the case of `CCCC1O[C@@H]2C[C@H]3[C@@H]4CCC5=CC(=O)C=C[C@]5(C)[C@H]4[C@@H](O)C[C@]3(C)[C@]2(C(=O)CO)O1` (some centres unmarked) [budesonide], the total lung deposition ([4]; breathe more slowly (comfortable inhalation manoeuvre)) is listed as 15% and the total lung deposition ([4]; breathe quickly (forceful inhalation manoeuvre)) is listed as 28%.
